Experiment: Volatility of perfuming compounds (Tables 4 to 10), with top/middle/bottom note type
Type: physicochemical
Procedure: In some aspects, the first perfume accord comprises perfuming compounds having a volatility ranging from 70,000 to 100 μg/l in air. In some aspects, perfuming compounds having a volatility ranging from 70,000 to 100 μg/l in air are referred to as “top notes”.
In some aspects, the second perfume accord comprises perfuming compounds having a volatility ranging from 99 to 50 μg/l in air. In some aspects, perfuming compounds having a volatility ranging from 99 to 50 μg/l in air are referred to as “middle notes”.
In some aspects, the third perfume accord comprises perfuming compounds having a volatility ranging from 49 to 0.1 μg/l in air. In some aspects, perfuming compounds having a volatility ranging from 49 to 0.1 μg/l in air are referred to as “bottom notes”.
Tables 4 to 10 describe top, middle and bottom note perfuming compounds for watery, green, fruity, citrus, sweet, gourmand and woody notes respectively.

[1] = Table 6, perfuming compounds having a fruity note
[2] = Table 6, perfuming compounds having a fruity note, note type by volatility
[3] = Table 7, citrus note, top, middle or bottom note
[4] = note type (Top/Middle/Bottom) by volatility, perfuming compounds having a green note
[5] = perfuming compounds having a green note

Row | Compound | Volatility [1] | Type [2] | further results
1 | CC1(C)CCC[C@]2(C)[C@H]3CCO[C@]3(C)CC[C@@H]12 | – | – | Type (Table 10, perfuming compounds having a woody note, note type by volatility): Bottom
2 | C=CCOC(=O)CCCCC [ALLYL HEXANOATE] | 941.49 μg/l air | TOP (perfuming compounds having a volatility ranging from 70,000 to 100 μg/l in air are referred to as “top notes”) | –
3 | CCOC(=O)Cc1ccccc1 [ETHYL PHENYLACETATE] | 269.77 μg/l air | TOP (perfuming compounds having a volatility ranging from 70,000 to 100 μg/l in air are referred to as “top notes”) | –
4 | CCC(=O)CC(C)CC (stereo not drawn) [5-METHYL-3-HEPTANONE] | 14141.42 μg/l air | TOP (perfuming compounds having a volatility ranging from 70,000 to 100 μg/l in air are referred to as “top notes”) | –
5 | CC1(C)C2CC[C@@]1(C)C(=O)C2 (single isomer, unassigned; (+)) | 555.04 μg/l air | TOP (perfuming compounds having a volatility ranging from 70,000 to 100 μg/l in air are referred to as “top notes”) | –
6 | CC(=O)OC(C)(C)Cc1ccccc1 [1,1-DIMETHYL-2-PHENYLETHYL ACETATE] | 198.02 μg/l air | TOP (perfuming compounds having a volatility ranging from 70,000 to 100 μg/l in air are referred to as “top notes”) | –
7 | CCCCCCC(C)=O [2-OCTANONE] | 6639.71 μg/l air | TOP (perfuming compounds having a volatility ranging from 70,000 to 100 μg/l in air are referred to as “top notes”) | –
8 | (+−)-(3E)-3-methyl-4-(2,6,6-trimethyl-2-cyclohexen-1-yl)-3-buten-2-one (A) + (+−)-(1E)-1-(2,6,6-trimethyl-2-cyclohexen-1-yl)-1-penten-3-one (B) | – | – | Type [3]: Bottom
9 | CC(C)=CCCC(C)=CCO | – | – | Type [3]: Middle
10 | CCOC(=O)C1=C(C)C=CCC1(C)C | 368.81 μg/l air | TOP (perfuming compounds having a volatility ranging from 70,000 to 100 μg/l in air are referred to as “top notes”) | –
11 | CC(C)=CCC/C(C)=C\CO | – | – | Volatility (μg/l air) (Table 7, citrus note): 86.02 μg/l air; Type [3]: Middle
12 | C=CC(=C)CCC=C(C)C | 15094.56 μg/l air | TOP (perfuming compounds having a volatility ranging from 70,000 to 100 μg/l in air are referred to as “top notes”) | –
13 | Cc1ccc(OC(=O)C(C)C)cc1 [4-METHYLPHENYL ISOBUTYRATE] | 167.81 μg/l air | TOP (perfuming compounds having a volatility ranging from 70,000 to 100 μg/l in air are referred to as “top notes”) | –
14 | CCOC(=O)c1ccccc1 [ETHYL BENZOATE] | 1285.12 μg/l air | TOP (perfuming compounds having a volatility ranging from 70,000 to 100 μg/l in air are referred to as “top notes”) | –
15 | CC(C)=CCC/C(C)=C/CO | – | – | Volatility (μg/l air) (Table 7, citrus note): 89.88 μg/l air; Type [3]: Middle
16 | CCCOC(=O)[C@H](C)OC(C)(C)CC | 995.16 μg/l air | TOP (perfuming compounds having a volatility ranging from 70,000 to 100 μg/l in air are referred to as “top notes”) | –
17 | CC/C=C\CCCCCO [(Z)-6-NONEN-1-OL] | – | – | Volatility (μg/l air) (Table 4, watery note): 6.91 μg/l air; Type (Table 4, watery note, top, middle or bottom note): bottom (perfuming compounds having a volatility ranging from 49 to 0.1 μg/l in air are referred to as “bottom notes”); Type [4]: Bottom; Volatility (μg/l air) [5]: 6.91 μg/l air
18 | C/C=C(\C)C(=O)OCC/C=C\CC | – | – | Type [4]: Top; Volatility (μg/l air) [5]: 168.78 μg/l air
19 | CCCCCCC1CCCC(=O)O1 (stereo not drawn) [6-hexyltetrahydro-2H-pyran-2-one] | 4.64 μg/l air | Bottom | Volatility (Table 8, perfuming compounds having a sweet note): 4.64 μg/l air; Type (Table 8, perfuming compounds having a sweet note, note type by volatility): Bottom; Volatility (Table 9, gourmand note): 4.64 μg/l air; Type (Table 9, perfuming compounds having a gourmand note, note type by volatility): Bottom
20 | CCCCCC1(C)CCC(C)(C)C1=O (racemic) | 265.42 μg/l air | TOP (perfuming compounds having a volatility ranging from 70,000 to 100 μg/l in air are referred to as “top notes”) | –
21 | CCCCCC(=O)CC [3-OCTANONE] | 6787.60 μg/l air | TOP (perfuming compounds having a volatility ranging from 70,000 to 100 μg/l in air are referred to as “top notes”) | –

From US20240301319A1, “PERFUMING COMPOSITIONS” (FIRMNICH SA, priority 2017, published 2024)
